Data as given in patent US20070049620A1, “Cyclic tertiary amine compound” (SANKYO COMPANY, LIMITED, priority 2003, published 2007).

SMILES | melting point [°C]
CNC(=O)c1ccc([C@@H]2C[C@H]3C=C(c4c[nH]c(-c5ccc(F)cc5)c4-c4ccncc4)CCN3C2)cc1 [Example 53, 2-(4-Fluorophenyl)-4-[(2S,8aS)-2-[4-(N-methylcarbamoyl)phenyl]-1,2,3,5,6,8a-hexahydroindolizin-7-yl]-3-(pyridin-4-yl)-1H-pyrrole] | 171 to 173
CCNC(=O)c1ccc([C@@H]2C[C@H]3C=C(c4c[nH]c(-c5ccc(F)cc5)c4-c4ccncc4)CCN3C2)cc1 [Example 54, 4-[(2S,8aS)-2-[4-(N-Ethylcarbamoyl)phenyl]-1,2,3,5,6,8a-hexahydroindolizin-7-yl]-2-(4-fluorophenyl)-3-(pyridin-4-yl)-1H-pyrrole] | 178 to 180
O=C(NCc1ccccc1)c1ccc([C@@H]2C[C@H]3C=C(c4c[nH]c(-c5ccc(F)cc5)c4-c4ccncc4)CCN3C2)cc1 [Example 55, 4-[(2S,8aS)-2-[4-(N-Benzylcarbamoyl)phenyl]-1,2,3,5,6,8a-hexahydroindolizin-7-yl]-2-(4-fluorophenyl)-3-(pyridin-4-yl)-1H-pyrrole] | 173 to 175
O=C(NC1CC1)c1ccc([C@@H]2C[C@H]3C=C(c4c[nH]c(-c5ccc(F)cc5)c4-c4ccncc4)CCN3C2)cc1 [Example 56, 4-[(2S,8aS)-2-[4-(N-Cyclopropylcarbamoyl)phenyl]-1,2,3,5,6,8a-hexahydroindolizin-7-yl]-2-(4-fluorophenyl)-3-(pyridin-4-yl)-1H-pyrrole] | 200 to 202
O=C(NCCF)c1ccc([C@@H]2C[C@H]3C=C(c4c[nH]c(-c5ccc(F)cc5)c4-c4ccncc4)CCN3C2)cc1 [Example 57, 4-[(2S,8aS)-2-[4-[N-(2-Fluoroethyl)carbamoyl]phenyl]-1,2,3,5,6,8a-hexahydroindolizin-7-yl]-2-(4-fluorophenyl)-3-(pyridin-4-yl)-1H-pyrrole] | 183 to 185

The next lines start with the values.

melting point [°C] | SMILES
190 to 192 | CCCNC(=O)c1ccc([C@@H]2C[C@H]3C=C(c4c[nH]c(-c5ccc(F)cc5)c4-c4ccncc4)CCN3C2)cc1 [Example 58, 2-(4-Fluorophenyl)-4-[(2S,8aS)-2-[4-(N-propylcarbamoyl)phenyl]-1,2,3,5,6,8a-hexahydroindolizin-7-yl]-3-(pyridin-4-yl)-1H-pyrrole]
202 to 204 | CC(C)NC(=O)c1ccc([C@@H]2C[C@H]3C=C(c4c[nH]c(-c5ccc(F)cc5)c4-c4ccncc4)CCN3C2)cc1 [Example 59, 2-(4-Fluorophenyl)-4-[(2S,8aS)-2-[4-(N-isopropylcarbamoyl)phenyl]-1,2,3,5,6,8a-hexahydroindolizin-7-yl]-3-(pyridin-4-yl)-1H-pyrrole]
166 to 168 | COCCNC(=O)c1ccc([C@@H]2C[C@H]3C=C(c4c[nH]c(-c5ccc(F)cc5)c4-c4ccncc4)CCN3C2)cc1 [Example 61, 2-(4-Fluorophenyl)-4-[(2S,8aS)-2-[4-(N-(2-methoxyethyl)carbamoyl)phenyl]-1,2,3,5,6,8a-hexahydroindolizin-7-yl]-3-(pyridin-4-yl)-1H-pyrrole]
